Measurements as given in patent US20050288307A1, “Anti-viral compounds” (priority 2002, published 2005).
Read-outs that look alike come from different tables or passages of the source.

Tests used:
CDK7/cyclin H = CDK7/cyclin H (Homo sapiens, UniProt P50613); assay: CDK7 assay (CTD peptide substrate); assay type: biochemical
Description: (§1) CTD peptide substrate (biotinyl-Ahx-(Tyr-Ser-Pro-Thr-Ser-Pro-Ser)4-NH2; 1-2 mg/mL) and recombinant human CDK7/cyclin H, CDK9/cyclin T1, or CDK9/cyclin K (0.5-2 μg) were incubated for 45 min at 30° C. in the presence of varying amounts of test compound in 20 mM MOPS pH 7.2, 25 mM β-glycerophosphate, 5 mM EGTA, 1 mM DTT, 1 mM sodium vanadate, 15 mM MgCl2, and 100 μM ATP (containing a trace amount of ^32PγATP) in a total volume of 25 μL in a 96-well microtiter plate. The reaction was stopped by placing the plate on ice for 2 min. Avidin (50 μg) was added to each well, and the plate was incubated at room temp for 30 min. The samples were transferred to a 96-well P81 filter plate, and washed (4×200 μL per well) with 75 mM phosphoric acid. Microscint 40 scintillation liquid (50 μL) was added to each well, and the amount of ^32P incorporation for each sample was measured using a Packard Topcount microplate scintillation counter.

CDK1/Cyclin B = CDK1/Cyclin B (Homo sapiens, UniProt P06493); assay: CDK1/cyclin B kinase assay (GST-Rb phosphorylation);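 further: Enzyme: His-tagged CDK1/Cyclin B co-expressed in baculovirus-infected Sf9 insect cells, purified via metal-chelate chromatography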
Description: (§2) His-tagged CDK2/Cyclin E and CDK1/Cyclin B may be co-expressed and PKCα singularly expressed in Sf 9 insect cells infected with the appropriate baculovirus constructs. The cells are harvested two days after infection by low speed centrifugation and the proteins purified from the insect cell pellets by Metal-chelate chromatography. Briefly, the insect cell pellet is lysed in Buffer A (10 mM Tris-HCl, pH 8.0, 150 mM NaCl, 0.02% NP40 and 5 mM β-marcaptoethanol, 1 mM NaF. 1 mM Na3VO4 and Protease Inhibitors Coctail (Sigma) containing AEBSF, pepstatin A, E 64, bestatin, leupeptin) by sonication. The soluble fraction is cleared by centrifugation and loaded onto Ni-NTA-Agarose (Quiagen). Non bound proteins were washed off with 300 mM NaCl, 5-15 mM Imidazole in Buffer A and the bound proteins eluted with 250 mM Imidazole in Buffer A. The purified proteins are extensively dialyzed against Storage buffer (20 mM HEPES pH 7.4, 50 mM NaCl, 2 mM DTT, 1 mM EDTA, 1 mM EGTA, 0.02% NP40, 10% v/v Glycerol) aliquoted and stored at −70° C.

CDK4/Cyclin D1 = CDK4/Cyclin D1 (Homo sapiens, UniProt P11802); assay: CDK4/cyclin D1 kinase assay (GST-Rb phosphorylation); assay type: biochemical
CDK2/Cyclin E = target: T1, CDK2/Cyclin E (Homo sapiens, UniProt P24941); assay: CDK2/cyclin E kinase assay (GST-Rb phosphorylation); assay type: biochemical; details: Table 3; read-out: Average IC50 CDK2 cyclin E1;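 further: enzyme source: His-tagged CDK2/cyclin E complex co-expressed recombinantly in Sf9 insect cells using baculovirus constructs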
T1 construct: His; made in house; host or cells: Sf9 insect cells (baculovirus)
Description: as §2

CDK9/cyclin T1 = CDK9/cyclin T1 (Homo sapiens, UniProt P50750); assay: CDK9 assay (CTD peptide substrate); assay type: biochemical
Description: as §1

CDK2/cyclin A = CDK2/cyclin A (Homo sapiens, UniProt P24941); assay: CDK2/cyclin A kinase assay; assay type: biochemical; details: Table 3; read-out: Average IC50 CDK2 cyclin A2;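 further: Read-out is incorporated radioactivity retained on P81 filter plates and quantified by scintillation counting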
Description: Reactions were stopped on ice, followed by filtration through p81 filterplates (Whatman Polyfiltronics, Kent, UK). After washing 3 times with 75 mM orthophosphoric acid, plates were dried, scintillant added and incorporated radioactivity measured in a scintillation counter (TopCount, Packard Instruments, Pangboume, Berks, UK).

[1] = Table 3, read-out: Average IC50 CDK7 cyclin H
[2] = Table 3, read-out: Average IC50 CDK4 cyclin D1
[3] = Table 3, read-out: Average IC50 CDK9 cyclin T1
[4] = Table 4, read-out: Kinase Inhibition IC50 CDK7-cyclin H

Sequence of CDK7/cyclin H (P50613 whole entry): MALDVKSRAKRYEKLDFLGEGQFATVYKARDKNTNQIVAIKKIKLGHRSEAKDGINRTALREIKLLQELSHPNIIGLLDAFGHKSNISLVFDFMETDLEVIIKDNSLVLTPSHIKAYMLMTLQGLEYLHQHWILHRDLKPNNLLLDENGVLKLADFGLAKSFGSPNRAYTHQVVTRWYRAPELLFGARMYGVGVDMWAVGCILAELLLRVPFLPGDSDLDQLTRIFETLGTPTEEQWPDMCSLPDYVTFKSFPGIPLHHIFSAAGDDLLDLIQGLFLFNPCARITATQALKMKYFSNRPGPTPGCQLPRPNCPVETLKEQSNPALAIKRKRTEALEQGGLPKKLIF
Sequence of CDK7/cyclin H (P51946 whole entry partner): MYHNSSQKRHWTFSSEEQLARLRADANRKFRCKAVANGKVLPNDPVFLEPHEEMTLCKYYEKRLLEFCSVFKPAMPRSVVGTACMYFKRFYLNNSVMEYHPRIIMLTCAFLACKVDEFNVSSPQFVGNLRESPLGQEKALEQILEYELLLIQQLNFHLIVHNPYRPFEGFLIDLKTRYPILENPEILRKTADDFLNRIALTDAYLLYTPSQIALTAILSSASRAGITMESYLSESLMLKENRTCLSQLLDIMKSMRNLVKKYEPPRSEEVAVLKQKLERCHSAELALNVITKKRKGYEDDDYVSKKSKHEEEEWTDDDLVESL
Sequence of CDK4/Cyclin D1 (P11802 whole entry, species assumed): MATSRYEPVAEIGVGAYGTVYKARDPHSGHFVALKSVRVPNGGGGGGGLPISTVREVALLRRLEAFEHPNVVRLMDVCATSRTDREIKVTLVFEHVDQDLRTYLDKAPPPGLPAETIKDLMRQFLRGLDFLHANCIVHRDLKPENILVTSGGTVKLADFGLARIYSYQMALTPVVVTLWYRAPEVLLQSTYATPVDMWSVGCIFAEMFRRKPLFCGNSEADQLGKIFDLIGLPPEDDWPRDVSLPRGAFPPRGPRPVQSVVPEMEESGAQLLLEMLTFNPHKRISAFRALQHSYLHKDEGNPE
Sequence of CDK4/Cyclin D1 (P24385 whole entry partner, species assumed): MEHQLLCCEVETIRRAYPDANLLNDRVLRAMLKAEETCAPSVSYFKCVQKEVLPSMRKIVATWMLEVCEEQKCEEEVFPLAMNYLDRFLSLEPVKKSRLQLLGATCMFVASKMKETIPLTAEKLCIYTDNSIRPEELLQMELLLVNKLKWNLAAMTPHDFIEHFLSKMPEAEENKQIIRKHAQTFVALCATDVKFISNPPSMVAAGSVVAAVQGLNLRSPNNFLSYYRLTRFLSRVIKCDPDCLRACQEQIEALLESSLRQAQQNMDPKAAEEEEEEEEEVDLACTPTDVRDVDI
Sequence of CDK9/cyclin T1 (P50750 whole entry): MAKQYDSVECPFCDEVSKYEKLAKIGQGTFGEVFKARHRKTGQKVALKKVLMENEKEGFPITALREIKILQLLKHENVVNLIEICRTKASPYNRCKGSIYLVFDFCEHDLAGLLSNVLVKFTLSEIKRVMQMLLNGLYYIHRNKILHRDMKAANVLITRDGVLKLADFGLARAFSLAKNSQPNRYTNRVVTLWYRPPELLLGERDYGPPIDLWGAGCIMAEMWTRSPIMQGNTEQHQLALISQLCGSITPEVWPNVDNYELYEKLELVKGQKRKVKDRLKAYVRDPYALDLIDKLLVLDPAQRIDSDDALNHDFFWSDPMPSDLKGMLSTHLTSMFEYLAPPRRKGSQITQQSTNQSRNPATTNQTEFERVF
Sequence of CDK9/cyclin T1 (O60563 whole entry partner): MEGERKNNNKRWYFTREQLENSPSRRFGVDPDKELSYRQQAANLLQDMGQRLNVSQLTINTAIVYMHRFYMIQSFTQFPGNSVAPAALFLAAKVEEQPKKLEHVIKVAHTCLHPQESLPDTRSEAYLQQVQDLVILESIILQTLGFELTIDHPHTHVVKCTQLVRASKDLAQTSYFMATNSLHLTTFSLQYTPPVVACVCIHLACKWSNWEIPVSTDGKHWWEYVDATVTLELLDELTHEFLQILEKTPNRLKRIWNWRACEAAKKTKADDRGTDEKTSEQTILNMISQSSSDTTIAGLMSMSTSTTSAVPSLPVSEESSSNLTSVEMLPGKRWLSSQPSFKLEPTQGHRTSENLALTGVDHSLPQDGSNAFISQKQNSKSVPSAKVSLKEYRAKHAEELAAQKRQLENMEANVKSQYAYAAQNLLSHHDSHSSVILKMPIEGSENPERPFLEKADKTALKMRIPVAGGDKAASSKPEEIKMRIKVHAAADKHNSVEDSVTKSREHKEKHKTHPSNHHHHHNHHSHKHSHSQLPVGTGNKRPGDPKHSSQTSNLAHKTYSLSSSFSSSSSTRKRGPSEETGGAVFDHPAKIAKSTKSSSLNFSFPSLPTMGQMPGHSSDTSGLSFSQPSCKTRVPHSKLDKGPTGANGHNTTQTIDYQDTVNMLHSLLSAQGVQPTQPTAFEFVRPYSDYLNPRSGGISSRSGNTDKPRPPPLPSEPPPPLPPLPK
Sequence of CDK1/Cyclin B (P06493 whole entry, species assumed): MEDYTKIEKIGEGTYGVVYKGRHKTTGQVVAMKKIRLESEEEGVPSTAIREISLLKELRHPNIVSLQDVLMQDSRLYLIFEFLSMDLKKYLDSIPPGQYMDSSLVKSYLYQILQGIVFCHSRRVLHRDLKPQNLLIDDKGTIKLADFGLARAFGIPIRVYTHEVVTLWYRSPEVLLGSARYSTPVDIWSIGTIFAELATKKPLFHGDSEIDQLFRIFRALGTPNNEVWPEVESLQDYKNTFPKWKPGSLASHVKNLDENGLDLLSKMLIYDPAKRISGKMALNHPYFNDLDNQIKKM
Sequence of CDK1/Cyclin B (P14635 whole entry partner, species assumed): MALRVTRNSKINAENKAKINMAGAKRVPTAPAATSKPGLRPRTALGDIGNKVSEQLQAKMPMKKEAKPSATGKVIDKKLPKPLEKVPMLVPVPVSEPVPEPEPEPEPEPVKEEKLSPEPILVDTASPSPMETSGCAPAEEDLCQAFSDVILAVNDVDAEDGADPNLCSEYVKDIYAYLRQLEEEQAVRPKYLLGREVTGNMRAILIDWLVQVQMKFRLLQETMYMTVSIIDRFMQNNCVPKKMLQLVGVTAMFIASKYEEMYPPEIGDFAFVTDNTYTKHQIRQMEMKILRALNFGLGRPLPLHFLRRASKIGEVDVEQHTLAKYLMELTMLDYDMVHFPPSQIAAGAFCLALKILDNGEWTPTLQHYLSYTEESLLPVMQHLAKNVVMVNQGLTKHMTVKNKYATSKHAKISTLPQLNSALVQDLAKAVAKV

IC50 (CDK7/cyclin H; [1]) [nM]	IC50 (CDK1/Cyclin B) [µM]	IC50 (CDK4/Cyclin D1; [2]) [µM]	IC50 (CDK2/Cyclin E) [nM]	Structure (SMILES)	further results
> 100000	32	> 50	5600	Cc1nc(C)c(-c2ccnc(Nc3cccc(Cl)c3)n2)s1 [Compound 3, (3-Chloro-phenyl)-[4-(2,4-dimethyl-thiazol-5-yl)-pyrimidin-2-yl]-amine]	
3200	1.2			Cc1nc(C)c(-c2ccnc(Nc3cccc(O)c3)n2)s1 [Compound 27, 3-[4-(2,4-Dimethyl-thiazol-5-yl)-pyrimidin-2-ylamino]-phenol]	IC50 (CDK9/cyclin T1; [3]): 240 nM
	14	0.38		Cc1nc(C)c(-c2ccnc(Nc3ccc(O)c([N+](=O)[O-])c3)n2)s1 [Compound 32, 4-[4-(2,4-Dimethyl-thiazol-5-yl)-pyrimidin-2-ylamino]-2-nitro-phenol]	IC50 (CDK9/cyclin T1; [3]): 55 nM
	2.9	1.2	380	Cc1nc(N)sc1-c1ccnc(Nc2cccc(F)c2)n1 [Compound 109, [4-(2-Amino-4-methyl-thiazol-5-yl)-pyrimidin-2-yl]-(3-fluoro-phenyl)-amine]	IC50 (CDK2/cyclin A): 1400 nM
		0.071	18	Cc1nc(N)sc1-c1ccnc(Nc2cccc(Cl)c2)n1 [Compound 112, [4-(2-Amino-4-methyl-thiazol-5-yl)-pyrimidin-2-yl]-(3-chloro-phenyl)-amine]	
440				CCN(CC)CCOc1ccc(Nc2nccc(-c3sc(C)nc3C)n2)cc1 [Compound 122, [4-(2-Diethylamino-ethoxy)-phenyl]-[4-(2,4-dimethyl-thiazol-5-yl)-pyrimidin-2-yl]-amine]	
	1.6	1.7	140	COc1ccc(Nc2nccc(-c3sc(C)nc3C)n2)cc1O [Compound 126, 5-[4-(2,4-Dimethyl-thiazol-5-yl)-pyrimidin-2-ylamino]-2-methoxy-phenol]	IC50 (CDK9/cyclin T1; [3]): 1300 nM; IC50 (CDK2/cyclin A): 310 nM
1500	0.13			Cc1nc(C)c(-c2ccnc(Nc3ccc(N(C)C)c([N+](=O)[O-])c3)n2)s1 [Compound 127, N^4-[4-(2,4-Dimethyl-thiazol-5-yl)-pyrimidin-2-yl]-N^1,N^1-dimethyl-2-nitro-benzene-1,4-diamine]	
	> 100		6800	CCNc1nc(C)c(-c2ccnc(Nc3cccc(OC)c3)n2)s1 [Compound 136, [4-(2-Ethylamino-4-methyl-thiazol-5-yl)-pyrimidin-2-yl]-(3-methoxy-phenyl)-amine]	IC50 (CDK2/cyclin A): 39000 nM
	41		2700	CCNc1nc(C)c(-c2ccnc(Nc3ccc(C)c([N+](=O)[O-])c3)n2)s1 [Compound 138, [4-(2-Ethylamino-4-methyl-thiazol-5-yl)-pyrimidin-2-yl]-(4-methyl-3-nitro-phenyl)-amine]	IC50 (CDK2/cyclin A): 9500 nM
	47	30	1700	CCCCNc1nc(C)c(-c2ccnc(Nc3ccc(F)cc3)n2)s1 [Compound 139, [4-(2-Butylamino-4-methyl-thiazol-5-yl)-pyrimidin-2-yl]-(4-fluoro-phenyl)-amine]	IC50 (CDK9/cyclin T1; [3]): 23000 nM; IC50 (CDK2/cyclin A): 25000 nM
		> 50	180	Cc1nc(N)sc1-c1ccnc(Nc2ccc([N+](=O)[O-])cc2)n1 [Compound 151, [4-(2-Amino-4-methyl-thiazol-5-yl)-pyrimidin-2-yl]-(4-nitro-phenyl)-amine]	

Further lines, the compound ahead of its results:

Structure (SMILES)	IC50 (CDK7/cyclin H; [1]) [nM]	IC50 (CDK1/Cyclin B) [µM]	IC50 (CDK4/Cyclin D1; [2]) [µM]	IC50 (CDK2/Cyclin E) [nM]	further results
Cc1nc(C)c(-c2ccnc(Nc3ccc(F)cc3)n2)s1 [Compound 8, [4-(2,4-Dimethyl-thiazol-5-yl)-pyrimidin-2-yl]-(4-fluoro-phenyl)-amine]	16000	17			IC50 (CDK9/cyclin T1; [3]): 310 nM
Cc1nc(C)c(-c2ccnc(Nc3ccc(C#N)cc3)n2)s1 [Compound 35, 4-[4-(2,4-Dimethyl-thiazol-5-yl)-pyrimidin-2-ylamino]-benzonitrile]		> 50	> 50	8000	
COC(=O)c1ccc(Nc2nccc(-c3sc(C)nc3C)n2)cc1 [Compound 37, 4-[4-(2,4-Dimethyl-thiazol-5-yl)-pyrimidin-2-ylamino]-benzoic acid methyl ester]		38	17	7500	
COc1ccc(Nc2nccc(-c3sc(C)nc3C)n2)cc1Cl [Compound 39, (3-Chloro-4-methoxy-phenyl)-[4-(2,4-dimethyl-thiazol-5-yl)-pyrimidin-2-yl]-amine]		40	> 50	5600	
CNc1nc(C)c(-c2ccnc(Nc3ccc(O)cc3)n2)s1 [Compound 48, 4-[4-(4-Methyl-2-methylamino-thiazol-5-yl)-pyrimidin-2-ylamino]-phenol]	860				IC50 (CDK9/cyclin T1; [3]): 76 nM
Cc1nc(N)sc1-c1ccnc(Nc2ccc(O)cc2)n1 [Compound 98, 4-[4-(2-Amino-4-methyl-thiazol-5-yl)-pyrimidin-2-ylamino]-phenol]	1000				IC50 (CDK9/cyclin T1; [3]): 45 nM
Cc1nc(C)c(-c2ccnc(Nc3cccc(NC(=N)N)c3)n2)s1 [Compound 99, N-{3-[4-(2,4-Dimethyl-thiazol-5-yl)-pyrimidin-2-ylamino]-phenyl}-guanidine]	310				IC50 (CDK9/cyclin T1; [3]): 260 nM
Cc1nc(C)c(-c2ccnc(Nc3ccc([N+](C)(C)C)cc3)n2)s1 [Compound 104, {4-[4-(2,4-Dimethyl-thiazol-5-yl)-pyrimidin-2-ylamino]-phenyl}-trimethyl-ammonium]	390				IC50 (CDK9/cyclin T1; [3]): 140 nM
COc1cccc(Nc2nccc(-c3sc(N)nc3C)n2)c1 [Compound 108, [4-(2-Amino-4-methyl-thiazol-5-yl)-pyrimidin-2-yl]-(3-methoxy-phenyl)-amine]		2.8	1.5	390	IC50 (CDK2/cyclin A): 910 nM
Cc1nc(N)sc1-c1ccnc(Nc2ccc(C(F)(F)F)cc2)n1 [Compound 110, [4-(2-Amino-4-methyl-thiazol-5-yl)-pyrimidin-2-yl]-(4-trifluoromethyl-phenyl)-amine]			5.8	680	
Cc1nc(N)sc1-c1ccnc(Nc2cccc(I)c2)n1 [Compound 113, [4-(2-Amino-4-methyl-thiazol-5-yl)-pyrimidin-2-yl]-(3-iodo-phenyl)-amine]	590				
Cc1nc(N)sc1-c1ccnc(Nc2ccc(Br)cc2)n1 [Compound 120, [4-(2-Amino-4-methyl-thiazol-5-yl)-pyrimidin-2-yl]-(4-bromo-phenyl)-amine]			1.6	1000	
Cc1nc(C)c(-c2ccnc(Nc3ccc(CCO)cc3)n2)s1 [Compound 123, 2-{4-[4-(2,4-Dimethyl-thiazol-5-yl)-pyrimidin-2-ylamino]-phenyl}-ethanol]		1.9	3.3	470	IC50 (CDK2/cyclin A): 570 nM
CCN(CCO)c1ccc(Nc2nccc(-c3sc(C)nc3C)n2)cc1 [Compound 124, 2-({4-[4-(2,4-Dimethyl-thiazol-5-yl)-pyrimidin-2-ylamino]-phenyl}-ethyl-amino)-ethanol]		8.6	6.7	3000	IC50 (CDK2/cyclin A): 3700 nM
Cc1nc(N(C)C)sc1-c1ccnc(Nc2ccc(Cl)cc2)n1 [Compound 141, (4-Chloro-phenyl)-[4-(2-dimethylamino-4-methyl-thiazol-5-yl)-pyrimidin-2-yl]-amine]			4.8	3900	
Cc1nc(N(C)C)sc1-c1ccnc(Nc2ccc(F)cc2)n1 [Compound 142, [4-(2-Dimethylamino-4-methyl-thiazol-5-yl)-pyrimidin-2-yl]-(4-fluoro-phenyl)-amine]			4	1300	
Cc1nc(N(C)C)sc1-c1ccnc(Nc2cccc(Cl)c2)n1 [Compound 143, (3-Chloro-phenyl)-[4-(2-dimethylamino-4-methyl-thiazol-5-yl)-pyrimidin-2-yl]-amine]			5.4	890	
COc1ccc(Nc2nccc(-c3sc(=O)n(C)c3C)n2)cc1 [Compound 157, 5-[2-(4-Methoxy-phenylamino)-pyrimidin-4-yl]-3,4-dimethyl-3H-thiazol-2-one]		0.78			IC50 (CDK7/cyclin H; [4]): 2000 nM
Cc1c(-c2ccnc(Nc3ccc(N(C)C)cc3)n2)sc(=O)n1C [Compound 164, 5-[2-(4-Dimethylamino-phenylamino)-pyrimidin-4-yl]-3,4-dimethyl-3H-thiazol-2-one]		2.2			IC50 (CDK7/cyclin H; [4]): 1800 nM; IC50 (CDK9/cyclin T1; Table 4, read-out: Kinase Inhibition IC50 CDK9-cyclin T1): 130 nM; IC50 (CDK4/Cyclin D1; Table 4, read-out: Kinase Inhibition IC50 CDK4-cyclin D1): 1 µM
